In general, EC50 refers to the midpoint of the concentration-response curve.

Molecules are shown by their SMILES.

The experiment concerns the target PAR4 (Homo sapiens (Human), UniProt Q96RI0). Nature of the experiment: FLIPR assay in PAR4-expressing HEK293 cells (PAR4 antagonist activity). In kind it is cell-based. Particulars: inhibition of H-Ala-Phe(4-F)-Pro-Gly-Trp-Leu-Val-Lys-Asn-Gly-NH2-induced intracellular calcium mobilization. From the text: The FLIPR assay is an exemplary in vitro assay for measuring the activity of the PAR4 antagonists of the present invention. In this assay, intracellular calcium mobilization is induced in PAR4 expressing cells by a PAR4 agonist and calcium mobilization is monitored. See, e.g., Example A.
HEK293 cells stably expressing PAR4 were generated by a standard method of transfection of human PAR4 (F2R23) cDNA expression vector and selected based on PAR4 protein expression or mRNA expression. […] These cells also express endogenous PAR1 and can elicit calcium signal upon stimulation with PAR1 agonist peptide. Therefore, the same cells were also used to determine selectivity against PAR1 and agonist activity for both receptors. Cells from HEK293 PAR4 Clone 1.2A (BMS Arctic ID 383940) were propagated and used for calcium mobilization studies.
FLIPR-based calcium mobilization assay in HEK293 cells was used to measure PAR4 antagonism, agonism, and selectivity against PAR1. The activity of the PAR4 antagonists of the present invention were tested in PAR4 expressing cells by monitoring H-Ala-Phe(4-F)-[…]NH2-induced intracellular calcium mobilization. Counter screens for agonist activity and PAR1 antagonist activity were also performed. Briefly, PAR1/PAR4-expressing HEK293 cells were grown in DMEM (Life Technology, Grand Island, N.Y.) containing 10% heat-inactivated FBS, 1% Penicillin-Streptomycin, 10 μg/mL blasticidin, and 100 μg/mL Zeocin at 37° C. with 5% CO2. Cells were plated overnight prior to the experiment in a black 384-well Purecoat Amine clear bottom plate (Becton Dickinson Biosciences, San Jose, Calif.) at 10,000 cells/well in 30 μL growth medium and incubated in a humidified chamber at 37° C. with 5% CO2 overnight. Prior to compound addition, the cell medium was replaced with […] of 1× calcium and magnesium-containing Hank's Balanced Saline Solution (HBSS) (with 20 mM HEPES) and 1:1000 diluted fluorescent calcium indicator (Codex Biosolutions, Gaithersburg, Md.). After a 30 minute incubation period at 37° C. and a further 30 minute incubation and equilibration period at room temperature, 20 μL test compound (diluted in 1× HBSS buffer) was added at various concentrations at 0.17% dimethyl sulfoxide (DMSO) final concentration. Changes in fluorescence intensity were measured using a Functional Drug Screening System (FDSS, Hamamatsu, Japan) to determine agonist activities. The cells were then incubated for 30 minutes at room temperature followed by addition of 20 μL of agonist peptide for antagonist activity measurement. […] Compound potency was derived from 11-point concentration-response curves.
The following Table sets out results obtained employing various compounds of the invention tested in the FLIPR assay. As indicated above, the FLIPR assay, an in vitro assay, measures the PAR4 antagonist activity of compounds tested as described in Example A.

Chain of PAR4 (Q96RI0 18-385): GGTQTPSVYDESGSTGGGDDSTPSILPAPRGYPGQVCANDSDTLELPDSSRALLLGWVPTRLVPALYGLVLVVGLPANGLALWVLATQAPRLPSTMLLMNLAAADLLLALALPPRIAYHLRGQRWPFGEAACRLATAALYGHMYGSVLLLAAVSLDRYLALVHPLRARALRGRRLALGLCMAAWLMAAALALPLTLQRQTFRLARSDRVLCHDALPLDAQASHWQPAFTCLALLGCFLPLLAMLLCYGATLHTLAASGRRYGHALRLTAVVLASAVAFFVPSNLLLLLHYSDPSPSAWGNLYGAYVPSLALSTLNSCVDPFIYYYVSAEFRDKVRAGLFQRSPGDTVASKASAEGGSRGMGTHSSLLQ

On to `COc1cc(OCc2cccc(NC(=O)c3cccc(C)c3)c2)c2cc(-c3cn4nc(OC)sc4n3)oc2c1` [Example 20], for which the EC50 turned out to be 1.4 nM.
In the case of `COc1cc(OCc2cccc(NC(=O)OC(C)(C)C)c2)c2cc(-c3cn4nc(OC)sc4n3)oc2c1` [Example 3, tert-Butyl (3-(((6-methoxy-2-(2-methoxyimidazo[2,1-b][1,3,4]thiadiazol-6-yl)benzofuran-4-yl)oxy)methyl)phenyl)carbamate] it was 2.6 nM.
With `COc1cc(OCc2cccc(NC(=O)c3ccc(OC)c(C(F)(F)F)c3)c2)c2cc(-c3cn4nc(OC)sc4n3)oc2c1` [Example 157] the figure was 2.8 nM.
In the case of `COc1cc(OCc2cccc(NC(=O)c3c(Cl)cccc3Cl)c2)c2cc(-c3cn4nc(OC)sc4n3)oc2c1` [Example 12], the EC50 came out at 1.5 nM.
With `COc1cc(OCc2cccc(NC(=O)c3ccnc(F)c3)c2)c2cc(-c3cn4nc(OC)sc4n3)oc2c1` [Example 48] the figure was 2.7 nM; with `COc1cc(OCc2cccc3c2CCN3)c2cc(-c3cn4nc(OC)sc4n3)oc2c1` [Example 114, 6-(4-(Indolin-4-ylmethoxy)-6-methoxybenzofuran-2-yl)-2-methoxyimidazo[2,1-b][1,3,4]thiadiazole], 37 nM.
In the case of `COc1cc(OCc2ccc3c(c2)N(C(=O)c2ccc(OC)nc2)CC3)c2cc(-c3cn4nc(OC)sc4n3)oc2c1` [Example 106] it was 1.5 nM; in that of `COc1cc(OCc2cccc(NC(=O)c3sc(C)nc3C)c2)c2cc(-c3cn4nc(OC)sc4n3)oc2c1` [Example 50], 7.4 nM.
With `COc1cc(OCc2cccc(NC(=O)c3ccc(OC)nc3)c2)c2cc(-c3cn4nc(OC)sc4n3)oc2c1` [Example 46] the figure was 1.1 nM; with `COc1cc(OCc2cccc3c2CCN3C(=O)c2ccccc2)c2cc(-c3cn4nc(OC)sc4n3)oc2c1` [Example 115, (4-(((6-Methoxy-2-(2-methoxyimidazo[2,1-b][1,3,4]thiadiazol-6-yl)benzofuran-4-yl)oxy)methyl)indolin-1-yl)(phenyl)methanone], 96 nM.
Consider `COc1cc(OCc2cccc(NC(=O)C3CCOCC3)c2)c2cc(-c3cn4nc(OC)sc4n3)oc2c1` [Example 165], for which the EC50 is 4.6 nM.
With `COc1cc(OCc2cccc(N(C)C(=O)c3cccc(F)c3)c2)c2cc(-c3cn4nc(OC)sc4n3)oc2c1` [Example 85] the figure was 6.1 nM.
For `COc1cc(OCc2cccc3c2CCN3C(=O)c2sc(C)nc2C)c2cc(-c3cn4nc(OC)sc4n3)oc2c1` [Example 129], the EC50 is 4.2 nM.
In the case of `COc1cc(OCc2cccc(N)c2)c2cc(-c3cn4nc(OC)sc4n3)oc2c1` [Example 4, 3-(((6-Methoxy-2-(2-methoxyimidazo[2,1-b][1,3,4]thiadiazol-6-yl)benzofuran-4-yl)oxy)methyl)aniline] it was 17 nM; in that of `COc1cc(OCc2cccc(NC(=O)c3cnc(-c4ccccc4)nc3C)c2)c2cc(-c3cn4nc(OC)sc4n3)oc2c1` [Example 66], 5.7 nM; in that of `COc1cc(OCc2cccc(NC(=O)c3cc(C(F)(F)F)ccc3F)c2)c2cc(-c3cn4nc(OC)sc4n3)oc2c1` [Example 140], 1.5 nM.
Turning to `COc1cc(OCc2cccc(NC(=O)c3ccc4c(c3)OCO4)c2)c2cc(-c3cn4nc(OC)sc4n3)oc2c1` [Example 22], the EC50 came out at 1.1 nM.
In the case of `COc1cc(OCc2cccc(NC(=O)c3cccc(N(C)C)c3)c2)c2cc(-c3cn4nc(OC)sc4n3)oc2c1` [Example 144] it was 3.8 nM; in that of `COc1cc(OCc2cccc(N(C)S(=O)(=O)c3ccccc3)c2)c2cc(-c3cn4nc(OC)sc4n3)oc2c1` [Example 91], 2 nM.
In the case of `COc1cc(OCc2cccc(NC(=O)c3c(OC)cccc3OC)c2)c2cc(-c3cn4nc(OC)sc4n3)oc2c1` [Example 162] it was 11 nM; in that of `COc1cc(OCc2cccc(NC(=O)c3ccc(Br)cn3)c2)c2cc(-c3cn4nc(OC)sc4n3)oc2c1` [Example 65], 1.1 nM; in that of `COc1cc(OCc2cccc(NC(=O)c3ccc(F)c(C(F)(F)F)c3)c2)c2cc(-c3cn4nc(OC)sc4n3)oc2c1` [Example 30], 1.8 nM.
As for `COc1cc(OCc2cccc(NC(=O)c3cc(F)cc(F)c3)c2)c2cc(-c3cn4nc(OC)sc4n3)oc2c1` [Example 159], the EC50 was found to be 1.6 nM.
With `COc1ccc(C(=O)Nc2cccc(COc3cc(OC)cc4oc(-c5cn6nc(OC)sc6n5)cc34)c2)c(OC)c1` [Example 42] the figure was 2.3 nM.
With `COc1cc(OCc2cccc(N(C)C(=O)c3ccc(C)cc3)c2)c2cc(-c3cn4nc(OC)sc4n3)oc2c1` [Example 89] the figure was 3.5 nM; with `COc1cc(OCc2cccc(NC(=O)C3CCCC3)c2)c2cc(-c3cn4nc(OC)sc4n3)oc2c1` [Example 145], 6.8 nM; with `COc1cc(OCc2ccc3c(c2)N(C(=O)c2ccccc2OC)CC3)c2cc(-c3cn4nc(OC)sc4n3)oc2c1` [Example 103], 4.5 nM.
In the case of `COc1cc(OCc2cccc3c2CCN3C(=O)c2ccc(F)cc2)c2cc(-c3cn4nc(OC)sc4n3)oc2c1` [Example 116] it was 140 nM.
Regarding `COc1cc(OCc2cccc(NC(=O)COc3ccccc3)c2)c2cc(-c3cn4nc(OC)sc4n3)oc2c1` [Example 35], the half-maximal effective concentration (EC50) turned out to be 1 nM.
In the case of `COc1cc(OCc2cccc(NC(=O)c3ccc(Cl)nc3)c2)c2cc(-c3cn4nc(OC)sc4n3)oc2c1` [Example 53], the EC50 came to 3.5 nM.
With `COc1cc(OCc2cccc(NC(=O)c3ccc(Cl)cc3)c2)c2cc(-c3cn4nc(OC)sc4n3)oc2c1` [Example 5, 4-Chloro-N-(3-(((6-methoxy-2-(2-methoxyimidazo[2,1-b][1,3,4]thiadiazol-6-yl)benzofuran-4-yl)oxy)methyl)phenyl)benzamide], the EC50 is 1.3 nM.
With `COc1cc(OCc2cccc(NC(=O)c3ccc(C(C)(C)C)cc3)c2)c2cc(-c3cn4nc(OC)sc4n3)oc2c1` [Example 37] the figure was 2.5 nM.
In the case of `COc1cc(OCc2cccc(NC(=O)c3ccc(Oc4ccccc4)nc3)c2)c2cc(-c3cn4nc(OC)sc4n3)oc2c1` [Example 51] it was 2.3 nM; in that of `COc1cc(OCc2cccc3c2CCN3C(=O)c2cncnc2)c2cc(-c3cn4nc(OC)sc4n3)oc2c1` [Example 126], 260 nM; in that of `COc1cc(OC)cc(C(=O)Nc2cccc(COc3cc(OC)cc4oc(-c5cn6nc(OC)sc6n5)cc34)c2)c1` [Example 137], 3.4 nM.
In the case of `COc1cc(OCc2cccc(NC(=O)c3csc(C(F)(F)F)n3)c2)c2cc(-c3cn4nc(OC)sc4n3)oc2c1` [Example 70] it was 1 nM; in that of `COc1cc(OCc2cccc(NC(=O)c3cccc(OC(F)(F)F)c3)c2)c2cc(-c3cn4nc(OC)sc4n3)oc2c1` [Example 6, N-(3-(((6-methoxy-2-(2-methoxyimidazo[2,1-b][1,3,4]thiadiazol-6-yl)benzofuran-4-yl)oxy)methyl)phenyl)-3-(trifluoromethoxy)benzamide], 1.4 nM.
As to `COc1cc(OCc2cccc(NC(=O)c3ccc4ccccc4c3)c2)c2cc(-c3cn4nc(OC)sc4n3)oc2c1` [Example 23], the EC50 turned out to be 1.8 nM.
For the compound `COc1nn2cc(-c3cc4c(OCc5cccc(NC(=O)c6ccccc6)c5)cccc4o3)nc2s1` [Example 52], the EC50 stood at 0.41 nM.
In the case of `COc1cc(OCc2cccc(NC(=O)c3cccc(Br)c3)c2)c2cc(-c3cn4nc(OC)sc4n3)oc2c1` [Example 10] it was 1.9 nM; in that of `COc1cc(OCc2cccc3c2CCN3C(=O)c2csc(C(F)(F)F)n2)c2cc(-c3cn4nc(OC)sc4n3)oc2c1` [Example 118], 16 nM.
As to `COc1cc(OCc2cccc(NC(=O)c3ccc(C(F)(F)F)c(F)c3)c2)c2cc(-c3cn4nc(OC)sc4n3)oc2c1` [Example 161], the EC50 came to 1.5 nM.
For the compound `COc1cc(OCc2cccc(N(C)C=O)c2)c2cc(-c3cn4nc(OC)sc4n3)oc2c1` [Example 97], the EC50 came out at 2.5 nM.
With `COc1cc(OCc2cccc(NC(=O)Cc3nc(C)sc3C)c2)c2cc(-c3cn4nc(OC)sc4n3)oc2c1` [Example 49] the figure was 0.85 nM.
With `COc1cc(OCc2cccc3c2CCN3C(=O)c2ccccc2OC)c2cc(-c3cn4nc(OC)sc4n3)oc2c1` [Example 124] the figure was 190 nM.

Source of the values: US10214544B2, “Imidazopyridazine and imidazothiadiazole compounds” (Universite de Montreal, priority 2015, dated 2019).
